Experimental data published in patent publication US7303765B2, “Ultrafine-L-carnitine, methods of preparing the same, compositions containing the same, and methods of using the same” (Sigma-Tau HealthScience S.p.A., priority 1999, dated 2007).

Experiments:
[1] = Bioavailability / human plasma levels after dosing; conditions: in vivo
Excerpt: Transformers may therefore accomplish the target dosage using a reduced active bolus, an efficiency which translates to cost savings. In principle, consumers purchase nutritionals on a pure weight volume (W/V) basis.

[2] = Oral toxicity (LD50) in rats; conditions: rat, in vivo
Solubility in water = format: physicochemical
Excerpt: Ultra-fine L-carnitine fumarate so prepared has the following analytical properties: […]

With `C[N+](C)(C)C[C@H](O)CC(=O)[O-].O=C(O)/C=C/C(=O)O` [Ultra-fine L-carnitine fumarate, L-carnitine fumarate] the “bioavailability through the mitochondrial pathway” value ([1]; human) was “increased bioavailability”, the human plasma levels [1] was “equal those of conventionally sized L-carnitine tartrate” and the LD50 [2] was greater than 8000 mg/kg. The Solubility (Solubility in water) was 5 g/100 ml in water.
